From article PMC4438431 (2015)

How the values were obtained:
Test in all cases: CD titration, Hyperquad 2003 fit
[1] = system: c-mycTGA-de (DNA, G4) GGGTGGGGAGGGTGGGGAA; conditions: K+ (17 mM K2HPO4/KH2PO4); pH 7.40, 5% DMSO, 20 °C; site 1 of 2, stepwise 1:1; second G4 2.8 × 10^2 M^-1
[2] = system: c-kitG20T (DNA, G4) AGGGAGGGCGCTGGGAGGATGG; conditions: K+ (17 mM K2HPO4/KH2PO4); pH 7.40, 5% DMSO, 20 °C; site 1 of 2, stepwise 1:1; second G4 1.1 × 10^5 M^-1
[3] = system: c-myc1245 (DNA, G4) TGAGGGTGGGTTTTTAGGGTGGGGAA; conditions: K+ (17 mM K2HPO4/KH2PO4); pH 7.40, 5% DMSO, 20 °C; conflict: Figure S38 legend prints (5.1 ± 0.2) × 10^4

## Cn1c2cccc(n2)n(C)c2cccc(n2)n(C)c2cccc(n2)n(C)c2cccc(n2)n(C)c2cccc(n2)n(C)c2cccc1n2
[1]
  Ka: (5.1 ± 0.2) × 10^4 M^-1
[2]
  Ka1: (9.4 ± 0.4) × 10^4 M^-1
[3]
  Ka: (1.3 ± 0.05) × 10^6 M^-1
